Our source for the IC50 and EC50 values is US12331044B2, “Inhibitors of histone deacetylase useful for the treatment or prevention of HIV infection” (Merck Sharp & Dohme LLC, priority 2018, dated 2025).

Assay [1] has as its target human HDAC1 (Homo sapiens (Human), UniProt Q13547). Briefly: biochemical.
The test system of assay [2] is KARN cells (Jurkat 2C4). Description: cells. Conditions: Homo sapiens.
In assay [3] the target is human HDAC2 (Homo sapiens (Human), UniProt Q92769). Description: HDAC2 inhibition assay (modified FLUOR DE LYS, 384-well). It counts as biochemical. Conditions: […] nM enzyme, 40 μM substrate BML-KI104, 3 h pre-incubation; read-out: HDAC2 IC50.
Chain of human HDAC2 (Q92769 whole entry): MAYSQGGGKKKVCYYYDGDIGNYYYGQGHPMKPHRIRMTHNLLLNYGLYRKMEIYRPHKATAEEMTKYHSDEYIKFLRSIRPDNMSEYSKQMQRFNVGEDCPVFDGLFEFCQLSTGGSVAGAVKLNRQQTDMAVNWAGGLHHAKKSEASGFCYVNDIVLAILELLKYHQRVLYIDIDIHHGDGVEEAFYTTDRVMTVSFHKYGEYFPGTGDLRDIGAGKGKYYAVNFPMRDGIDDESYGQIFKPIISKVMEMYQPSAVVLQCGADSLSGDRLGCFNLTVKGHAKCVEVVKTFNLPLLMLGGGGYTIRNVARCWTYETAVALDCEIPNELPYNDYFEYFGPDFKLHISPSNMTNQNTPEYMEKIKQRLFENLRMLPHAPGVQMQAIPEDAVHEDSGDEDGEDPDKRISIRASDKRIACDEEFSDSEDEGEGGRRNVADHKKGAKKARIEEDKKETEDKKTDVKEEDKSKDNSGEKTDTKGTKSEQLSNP
The target of assay [4] is human HDAC3/SMRT heterodimer (Homo sapiens (Human), UniProt O15379). Briefly: biochemical.
Chain of human HDAC3/SMRT heterodimer (O15379 whole entry): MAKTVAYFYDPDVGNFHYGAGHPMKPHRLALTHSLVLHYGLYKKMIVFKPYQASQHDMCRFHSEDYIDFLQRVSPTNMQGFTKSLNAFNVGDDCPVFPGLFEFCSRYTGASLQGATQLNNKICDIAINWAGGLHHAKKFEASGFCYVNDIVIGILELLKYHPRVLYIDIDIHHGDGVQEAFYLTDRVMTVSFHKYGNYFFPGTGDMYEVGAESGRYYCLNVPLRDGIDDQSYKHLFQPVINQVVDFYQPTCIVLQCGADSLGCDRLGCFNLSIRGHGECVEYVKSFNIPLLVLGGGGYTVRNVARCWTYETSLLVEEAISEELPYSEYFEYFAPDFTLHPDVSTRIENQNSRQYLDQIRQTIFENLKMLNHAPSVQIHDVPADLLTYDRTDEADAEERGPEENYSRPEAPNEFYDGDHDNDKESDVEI
Chain of human HDAC3/SMRT heterodimer (Q9Y618 1-899 partner): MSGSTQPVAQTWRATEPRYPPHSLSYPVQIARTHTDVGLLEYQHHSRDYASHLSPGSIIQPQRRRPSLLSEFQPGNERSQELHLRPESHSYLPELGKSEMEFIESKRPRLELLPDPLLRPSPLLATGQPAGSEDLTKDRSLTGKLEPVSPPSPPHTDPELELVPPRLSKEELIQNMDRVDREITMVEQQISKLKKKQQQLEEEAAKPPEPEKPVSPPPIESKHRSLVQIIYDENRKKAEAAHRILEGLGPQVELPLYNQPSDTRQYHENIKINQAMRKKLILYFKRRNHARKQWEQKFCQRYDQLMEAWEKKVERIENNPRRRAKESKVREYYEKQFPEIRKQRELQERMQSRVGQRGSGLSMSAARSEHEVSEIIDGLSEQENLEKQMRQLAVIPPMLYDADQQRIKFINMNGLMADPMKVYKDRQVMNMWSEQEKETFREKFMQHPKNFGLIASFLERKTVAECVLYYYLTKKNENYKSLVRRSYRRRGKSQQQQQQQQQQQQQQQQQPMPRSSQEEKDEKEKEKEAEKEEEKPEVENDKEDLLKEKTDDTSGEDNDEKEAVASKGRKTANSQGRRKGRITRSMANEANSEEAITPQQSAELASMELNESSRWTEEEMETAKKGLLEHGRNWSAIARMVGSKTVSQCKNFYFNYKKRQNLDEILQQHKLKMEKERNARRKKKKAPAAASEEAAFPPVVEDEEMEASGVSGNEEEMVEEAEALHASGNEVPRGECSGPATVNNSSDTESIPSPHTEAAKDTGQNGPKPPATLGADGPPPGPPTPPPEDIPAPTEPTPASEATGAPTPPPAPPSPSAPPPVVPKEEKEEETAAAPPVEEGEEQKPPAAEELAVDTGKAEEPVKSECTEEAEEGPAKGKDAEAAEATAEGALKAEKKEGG
Assay [5] deals with human HDAC8 (Homo sapiens (Human), UniProt Q9BY41). Description: HDAC8 inhibition assay (modified FLUOR DE LYS, 384-well). Particulars: […] nM enzyme, 200 μM substrate BML-KI178, 3 h pre-incubation; read-out: HDAC8 IC50. It counts as biochemical.
Chain of human HDAC8 (Q9BY41 whole entry): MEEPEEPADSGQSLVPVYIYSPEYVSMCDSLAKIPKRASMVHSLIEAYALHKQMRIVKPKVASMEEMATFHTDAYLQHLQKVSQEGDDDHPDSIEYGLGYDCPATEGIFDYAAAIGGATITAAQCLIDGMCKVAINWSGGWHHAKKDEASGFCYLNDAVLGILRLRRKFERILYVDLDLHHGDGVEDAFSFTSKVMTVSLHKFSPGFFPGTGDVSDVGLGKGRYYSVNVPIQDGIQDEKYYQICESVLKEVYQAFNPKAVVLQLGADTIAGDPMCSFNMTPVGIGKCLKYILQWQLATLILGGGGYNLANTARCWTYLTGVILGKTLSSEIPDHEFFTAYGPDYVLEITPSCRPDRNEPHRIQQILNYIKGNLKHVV
Method: The histone deacetylase activities of HDAC1, HDAC2, HDAC3, HDAC6, and HDAC8 were measured in modified FLUOR DE LYS assays in 384-well format. In this assay, HDAC enzymes are initially incubated with an F-acetyl (or -trifluoroacetyl)-L-lysine-containing substrate with a C-terminal amide having aminomethylcoumarin as the amine component. HDACs cleave the F-acetyl group, rendering the resulting product susceptible to AMC cleavage by trypsin. The released AMC is then detected by its fluorescence. […] All steps were performed at room temperature (23° C.). The assay was performed by pre-incubating serial dilutions of test compounds with the target HDAC prior to initiation with substrate. […] Final conditions used for each assay were: 1. […] The reactions were stopped and developed by addition of 30 ul of HDAC developer solution containing a saturating level of HDAC inhibitor as follows: 1. […] For data analysis, background subtracted product (fluorescence) vs. time data for each inhibitor concentration was fitted using a 4-parameter fit.
Assay [6] concerns the target HDAC6 (Homo sapiens (Human), UniProt Q9UBN7). Briefly: biochemical.
Setting [7] is: read-out: Karn EC50 nM 0.1% NHS, 0.1% normal human serum, luciferase induction, 2 μM SAHA = 100%.
Setting [8] is: read-out: Karn EC50 nM 5% NHS, 5% normal human serum, luciferase induction, 2 μM SAHA = 100%.
The mark [9] stands for this setting: read-out: Karn EC50 nM 0.1% NHS.

Like-named read-outs stand apart in the source and are kept apart here.

Chain of HDAC6 (Q9UBN7 whole entry): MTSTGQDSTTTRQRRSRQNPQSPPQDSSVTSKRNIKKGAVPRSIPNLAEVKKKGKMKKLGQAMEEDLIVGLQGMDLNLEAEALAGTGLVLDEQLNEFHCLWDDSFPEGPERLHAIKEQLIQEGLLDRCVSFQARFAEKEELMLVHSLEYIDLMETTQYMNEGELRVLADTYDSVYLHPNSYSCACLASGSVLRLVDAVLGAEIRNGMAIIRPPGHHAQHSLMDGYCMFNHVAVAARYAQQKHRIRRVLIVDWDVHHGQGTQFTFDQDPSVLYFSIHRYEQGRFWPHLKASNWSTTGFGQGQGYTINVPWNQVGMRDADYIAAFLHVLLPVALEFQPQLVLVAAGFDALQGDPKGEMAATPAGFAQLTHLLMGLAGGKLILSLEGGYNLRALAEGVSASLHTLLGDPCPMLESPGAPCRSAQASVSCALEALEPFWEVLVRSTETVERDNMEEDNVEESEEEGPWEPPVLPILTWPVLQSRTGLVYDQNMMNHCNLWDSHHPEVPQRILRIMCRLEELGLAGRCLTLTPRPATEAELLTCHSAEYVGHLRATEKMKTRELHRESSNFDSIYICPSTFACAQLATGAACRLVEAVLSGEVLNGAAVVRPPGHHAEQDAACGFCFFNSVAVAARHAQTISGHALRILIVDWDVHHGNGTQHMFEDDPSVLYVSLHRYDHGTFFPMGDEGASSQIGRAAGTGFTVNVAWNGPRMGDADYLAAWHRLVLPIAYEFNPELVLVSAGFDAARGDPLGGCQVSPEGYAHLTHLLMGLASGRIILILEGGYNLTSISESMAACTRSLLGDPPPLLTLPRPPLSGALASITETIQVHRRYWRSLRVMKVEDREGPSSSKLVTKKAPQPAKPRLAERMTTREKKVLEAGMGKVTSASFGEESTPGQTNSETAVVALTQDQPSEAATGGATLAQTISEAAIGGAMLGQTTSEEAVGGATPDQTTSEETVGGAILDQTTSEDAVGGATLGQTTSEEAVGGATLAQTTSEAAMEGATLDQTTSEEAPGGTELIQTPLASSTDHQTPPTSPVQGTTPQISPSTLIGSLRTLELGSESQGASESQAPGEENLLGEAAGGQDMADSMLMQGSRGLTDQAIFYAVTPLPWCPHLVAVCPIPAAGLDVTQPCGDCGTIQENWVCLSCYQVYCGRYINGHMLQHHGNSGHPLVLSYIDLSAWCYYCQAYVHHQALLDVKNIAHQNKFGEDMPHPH
Chain of human HDAC1 (Q13547 whole entry): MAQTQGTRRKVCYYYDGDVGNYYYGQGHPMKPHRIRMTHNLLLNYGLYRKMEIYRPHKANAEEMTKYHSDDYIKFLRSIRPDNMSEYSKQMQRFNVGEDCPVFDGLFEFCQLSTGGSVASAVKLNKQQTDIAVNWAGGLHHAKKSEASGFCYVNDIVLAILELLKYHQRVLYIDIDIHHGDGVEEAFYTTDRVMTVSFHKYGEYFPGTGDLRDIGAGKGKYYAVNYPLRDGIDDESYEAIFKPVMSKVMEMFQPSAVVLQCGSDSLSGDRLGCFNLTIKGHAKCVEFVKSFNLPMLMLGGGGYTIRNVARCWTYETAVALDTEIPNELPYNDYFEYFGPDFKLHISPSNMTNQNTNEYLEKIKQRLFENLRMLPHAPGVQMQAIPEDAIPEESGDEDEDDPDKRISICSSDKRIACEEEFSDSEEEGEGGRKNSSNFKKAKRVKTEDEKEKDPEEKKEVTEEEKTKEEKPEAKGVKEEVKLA

Take `O=C1CC[C@](CCCCCC(=O)c2ncco2)(c2ncc(-c3ccc(F)cc3)[nH]2)N1` [Example 65, (R)-5-(5-(4-fluorophenyl)-1H-imidazol-2-yl)-5-(6-(oxazol-2-yl)-6-oxohexyl)pyrrolidin-2-one]: the 50% inhibitory concentration (IC50) was 2.2 nM in assay [1]; 11 nM in assay [3]; 2.2 nM in assay [4]; 3100 nM in assay [5]; at least 45000 nM in assay [6]. For the same compound, the values for the EC50 in assay [2] (setting [7]) and in assay [2] (setting [8]) were 470 nM and 630 nM, respectively.
With `O=C1NC(CCCCCC(=O)c2ncco2)(c2nc(-c3ccc(F)cc3)c[nH]2)CO1` (centres unmarked) [Example 66, 4-(4-(4-fluorophenyl)-1H-imidazol-2-yl)-4-(6-(oxazol-2-yl)-6-oxohexyl)oxazolidin-2-one], the concentration for half-maximal inhibition (IC50) in assay [1] was 4.4 nM; in assay [3], 15 nM; in assay [4], 3.1 nM; in assay [5] it was 4400 nM; in assay [6] it was at least 45000 nM. The EC50 was 380 nM in assay [2] (setting [7]) and 530 nM in assay [2] (setting [8]).
On to `O=C1CC[C@@](CCCCCC(=O)c2ccon2)(c2nc(-c3ccc(-c4ncco4)cc3F)c[nH]2)N1` [Example 67, (S)-5-(4-(2-fluoro-4-(oxazol-2-yl)phenyl)-1H-imidazol-2-yl)-5-(6-(isoxazol-3-yl)-6-oxohexyl)pyrrolidin-2-one], for which the IC50 in assay [1] is 1.8 nM; in assay [3], 4.3 nM; in assay [4], 1.5 nM; in assay [5] it was 400 nM; in assay [6], at least 45000 nM. In addition, the EC50 came out at 51 nM in assay [2] (setting [7]) and 95 nM in assay [2] (setting [8]).
`O=C1CC[C@@](CCCCCC(=O)c2ccon2)(c2nc(-c3ccc(C4CC4)cc3F)c[nH]2)N1` [Example 68, (S)-5-(4-(4-cyclopropyl-2-fluorophenyl)-1H-imidazol-2-yl)-5-(6-(isoxazol-3-yl)-6-oxohexyl)pyrrolidin-2-one]: the IC50 in assay [1] is 1 nM; in assay [3], 5 nM; in assay [4], 0.55 nM; in assay [5] it was 230 nM; in assay [6] it was over 900 nM. The half-maximal effective concentration (EC50) in assay [2] (setting [7]) was found to be 34 nM; in assay [2] (setting [8]), 110 nM.
As for `O=C1CC[C@@](CCCCCC(=O)c2ccon2)(c2nc(-c3ccccc3F)c[nH]2)N1` [Example 69, (S)-5-(4-(2-fluorophenyl)-1H-imidazol-2-yl)-5-(6-(isoxazol-3-yl)-6-oxohexyl)pyrrolidin-2-one], the half-maximal inhibitory concentration (IC50) in assay [1] was 0.92 nM; in assay [3] it was 4.2 nM; in assay [4] it was 0.79 nM; in assay [5], 210 nM; in assay [6], over 900 nM. Moreover, the EC50 in assay [2] (setting [7]) is 96 nM; in assay [2] (setting [8]), 260 nM.
For the compound `COc1cc2nc(C)ccc2cc1-c1cnc([C@@]2(CCCCCC(=O)c3ccon3)CCC(=O)N2)[nH]1` [Example 70, (R)-5-(6-(isoxazol-3-yl)-6-oxohexyl)-5-(5-(7-methoxy-2-methylquinolin-6-yl)-1H-imidazol-2-yl)pyrrolidin-2-one], the 50% inhibitory concentration (IC50) in assay [1] is 0.78 nM; in assay [3], 3.5 nM; in assay [4], 1.1 nM; in assay [5], 260 nM; in assay [6], over 900 nM. Further, the figures for the 50% effective concentration (EC50) in assay [2] (setting [7]) and in assay [2] (setting [8]) were 31 nM and 110 nM, respectively.
For `COc1ncccc1-c1c[nH]c([C@]2(CCCCCC(=O)c3ccon3)CCCC(=O)N2)n1` [Example 71, (S)-6-(6-(isoxazol-3-yl)-6-oxohexyl)-6-(4-(2-methoxypyridin-3-yl)-1H-imidazol-2-yl)piperidin-2-one], the IC50 in assay [1] is 1.19 nM; in assay [3] it was 6.1 nM; in assay [4], 1.8 nM; in assay [5] it was 690 nM; in assay [6], over 900 nM. The 50% effective concentration (EC50) in assay [2] (setting [7]) stood at 330 nM; in assay [2] (setting [8]) it was 490 nM.
As to `O=C1CCCC[C@@](CCCCCC(=O)c2ccon2)(c2nc(-c3ccccc3F)c[nH]2)N1` [Example 72, (S)-7-(4-(2-fluorophenyl)-1H-imidazol-2-yl)-7-(6-(isoxazol-3-yl)-6-oxohexyl)azepan-2-one], the IC50 in assay [1] is 17 nM; in assay [3] it was 89 nM; in assay [4], 17 nM; in assay [5], over 900 nM; in assay [6], over 900 nM. The EC50 in assay [2] (setting [7]) was found to be 650 nM; in assay [2] (setting [8]) it was 1900 nM.
As to `COc1nc2ccccc2cc1-c1cnc(CCCCCCC(=O)c2ncco2)[nH]1` [Example 73, 7-(5-(2-methoxyquinolin-3-yl)-1H-imidazol-2-yl)-1-(oxazol-2-yl)heptan-1-one], the IC50 was 3.3 nM in assay [1]; 16 nM in assay [3]; 4.2 nM in assay [4]; 3900 nM in assay [5]; 2500 nM in assay [6]. Besides, the concentration for a half-maximal effect (EC50) worked out at 840 nM in assay [2] (setting [7]) and 15 nM in assay [2] (setting [8]).
For `CCN[C@@H](CCCCCC(=O)c1ncco1)c1ncc(-c2ccc3nc(C)ccc3c2)[nH]1` [Example 74, (S)-7-(ethylamino)-7-(5-(2-methylquinolin-6-yl)-1H-imidazol-2-yl)-1-(oxazol-2-yl)heptan-1-one], the concentration for half-maximal inhibition (IC50) in assay [1] is 1.6 nM; in assay [3], 5 nM; in assay [4], 1.8 nM; in assay [5] it was 4500 nM; in assay [6], at least 45000 nM. For the same compound, the EC50 was 140 nM in assay [2] (setting [7]) and 200 nM in assay [2] (setting [8]).
With `CN[C@@H](CCCCCC(=O)c1ncco1)c1ncc(-c2cc3ccc(=O)n(C)c3cc2OC)[nH]1` [Example 76, (S)-7-methoxy-1-methyl-6-(2-(1-(methylamino)-7-(oxazol-2-yl)-7-oxoheptyl)-1H-imidazol-5-yl)quinolin-2(1H)-one], the half-maximal inhibitory concentration (IC50) in assay [1] was 2.2 nM; in assay [3], 6.7 nM; in assay [4] it was 2.7 nM; in assay [5], over 900 nM; in assay [6], over 900 nM. Moreover, the EC50 was 200 nM in assay [2] (setting [7]) and 220 nM in assay [2] (setting [8]).
As for `Cc1ccc2cc(-c3c[nH]c([C@H](CCCCCC(=O)c4ncco4)NC4CCOCC4)n3)ccc2n1` [Example 79, (S)-7-(5-(2-methylquinolin-6-yl)-1H-imidazol-2-yl)-1-(oxazol-2-yl)-7-((tetrahydro-2H-pyran-4-yl)amino)heptan-1-one], the half-maximal inhibitory concentration (IC50) is 6.6 nM in assay [1]; 35 nM in assay [3]; 12 nM in assay [4]; 17000 nM in assay [5]; at least 45000 nM in assay [6]. Also, the concentration for a half-maximal effect (EC50) in assay [2] (setting [9]) came out at 1000 nM; in assay [2] (read-out: Karn EC50 nM 5% NHS) it was 1300 nM.
For the compound `Cc1ccc2cc(-c3c[nH]c([C@H](CCCCCC(=O)c4ncco4)NCc4ccccc4)n3)ccc2n1` [Example 81, (S)-7-(benzylamino)-7-(5-(2-methylquinolin-6-yl)-1H-imidazol-2-yl)-1-(oxazol-2-yl)heptan-1-one], the half-inhibitory concentration (IC50) in assay [1] came to 3.4 nM; in assay [3], 16 nM; in assay [4], 3.7 nM; in assay [5] it was 4900 nM; in assay [6], 21000 nM. Also, the EC50 in assay [2] (setting [9]) was 430 nM; in assay [2] (read-out: Karn EC50 nM 5% NHS), 690 nM.
`Cc1ccc2cc(-c3cnc([C@H](CCCCCC(=O)c4ncco4)N4CCOCC4)[nH]3)ccc2n1` [Example 83, (S)-7-(5-(2-methylquinolin-6-yl)-1H-imidazol-2-yl)-7-morpholino-1-(oxazol-2-yl)heptan-1-one]: the concentration for half-maximal inhibition (IC50) in assay [1] is 14 nM; in assay [3] it was 62 nM; in assay [4] it was 31 nM; in assay [5], 12000 nM; in assay [6] it was at least 45000 nM. Besides, the EC50 was 3400 nM in assay [2] (setting [7]) and 4200 nM in assay [2] (setting [8]).
For `COc1cc2nc(C)ccc2cc1-c1cnc([C@H](CCCCCC(=O)c2ncco2)NC2CC(OC)C2)[nH]1` (stereo partly drawn) [Example 84, (S)-7-(5-(7-methoxy-2-methylquinolin-6-yl)-1H-imidazol-2-yl)-7-((3-methoxycyclobutyl)amino)-1-(oxazol-2-yl)heptan-1-one], the half-inhibitory concentration (IC50) in assay [1] came to 4 nM; in assay [3] it was 22 nM; in assay [4], 7.9 nM; in assay [5], 3100 nM; in assay [6] it was 13000 nM. Moreover, the concentration for a half-maximal effect (EC50) turned out to be 490 nM in assay [2] (setting [7]) and 540 nM in assay [2] (setting [8]).
Regarding `COc1cc2nc(C)ccc2cc1-c1cnc([C@H](CCCCCC(=O)c2ncco2)Nc2ncccn2)[nH]1` [Example 85, (S)-7-(5-(7-methoxy-2-methylquinolin-6-yl)-1H-imidazol-2-yl)-1-(oxazol-2-yl)-7-(pyrimidin-2-ylamino)heptan-1-one], the half-inhibitory concentration (IC50) in assay [1] worked out at 2.3 nM; in assay [3] it was 11 nM; in assay [4], 1.5 nM; in assay [5] it was 210 nM; in assay [6] it was 250 nM. Also, the half-maximal effective concentration (EC50) in assay [2] (setting [7]) is 67 nM; in assay [2] (setting [8]) it was 210 nM.
As to `COC(=O)N[C@@H](CCCCCC(=O)c1ncco1)c1ncc(-c2cc3ccc(C)nc3cc2OC)[nH]1` [Example 86, (S)-methyl (1-(5-(7-methoxy-2-methylquinolin-6-yl)-1H-imidazol-2-yl)-7-(oxazol-2-yl)-7-oxoheptyl)carbamate], the IC50 in assay [1] was determined as 2 nM; in assay [3], 9.9 nM; in assay [4] it was 1.5 nM; in assay [5], 160 nM; in assay [6], 40 nM. For the same compound, the values for the EC50 in assay [2] (setting [7]) and in assay [2] (setting [8]) were 80 nM and 160 nM, respectively.
